PubChem BioAssay (NCI)
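Cells were grown in 96-well plates and exposed to each compound for 48 hours at five concentrations; endpoints were interpolated linearly between bracketing concentrations, or set to the highest concentration if not reached. GI50 marks 50% less growth. TGI is the concentration that stops growth completely.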

Key:
Assay in all cases: DTP human tumour cell line panel, 48 h
[1] = test system: ACHN renal
[2] = test system: SK-OV-3 ovarian
[3] = test system: MALME-3M melanoma
[4] = test system: HCT-116 colon
[5] = test system: SNB-19 CNS
[6] = test system: SK-MEL-5 melanoma
[7] = test system: PC-3 prostate
[8] = test system: NCI/ADR-RES ovarian
[9] = test system: MCF7 breast
[10] = test system: HOP-62 NSCLC

SMILES	GI50 [1] [µM]	TGI [1] [µM]	GI50 [2] [µM]	TGI [2] [µM]	GI50 [3] [µM]	TGI [3] [µM]	GI50 [4] [µM]	TGI [4] [µM]	GI50 [5] [µM]	TGI [5] [µM]	GI50 [6] [µM]	TGI [6] [µM]	GI50 [7] [µM]	TGI [7] [µM]	GI50 [8] [µM]	TGI [8] [µM]	GI50 [9] [µM]	TGI [9] [µM]	GI50 [10] [µM]	TGI [10] [µM]
Cc1cc(Nc2nc(-c3cccnc3)nc3ccccc23)n[nH]1	0.527	> 100	0.956	> 100	> 100	> 100	0.494	> 100	5.98	> 100	4	> 63.6	1.85	> 100	5.13	> 92.7	1.28	> 100	2.68	> 89.8
Brc1ccc2[nH]cc(-c3nc(-c4c[nH]c5ncccc45)cs3)c2c1	2.66	12.9	5.71	20.4	4.46	18.8	3.09	12.2	5.29	19.8	2.97	12.9	2.99	13.5	3.38	26.1	2.57	13.7	3.76	17
COc1ccc(C(c2ccc(OCCN(C)C)cc2)c2cc3ccccc3c3ccccc23)cc1 (stereo not given)	1.7	3.13	6.62	20.4	1.55	3.12	1.68	3.14	1.72	3.31	1.69	3.11	1.76	3.5	1.71	3.39	1.81	3.61	1.54	3.07
COc1cccc(-c2nn(-c3ccccc3)cc2-c2ccnc(NCCNC(=O)Nc3cccc(C(F)(F)F)c3)c2)c1	2.91	10.4	3.5	12.2	1.76	3.9	2.88	11.8	3.12	11.9	1.73	3.15	2.02	5.24	2.22	5.82	2.07	4.89	2.52	5.63
Cc1ccc(-c2c3c(nn2-c2ccc(S(N)(=O)=O)cc2)-c2ccccc2C3)cc1	19.8	35.8	47.3	> 100	11.6	26.5	11	24.2	37.4	> 100	1.21	5.76	16.1	42.6	23.4	68.7	30.3	> 100	20.6	36.1
COc1ccc2c(C3(c4cn(C)c5cc(OC)ccc45)C(=O)Nc4ccc(Cl)cc43)cn(C)c2c1	3.32	> 100	5.07	> 100	3.62	57.6	3.15	19.7	5.81	> 100	4.26	20.8	3.65	> 100	3.9	> 100	3.09	> 100	4.2	> 100
COc1cc(-c2cc(-c3ccc(Nc4ccnc5cc(Cl)ccc45)cc3)nc(N3CCOCC3)n2)cc(OC)c1OC	2.34	5.02	14.9	31.7	1.86	3.97	1.36	3.34	2.36	5.28	3.5	> 100	1.78	3.69	2.3	7.26	0.755	3.26	1.95	4.09
COc1cccc(/C=N/NC(=S)NC2CC3CCC2C3)c1O (stereo not given)	2.5	8.14	4.46	14.4	5.65	20	4.01	15.8	14.6	35.9	13.9	77.4	8.5	27	3.16	15.1	4.74	27.1	3.01	10
N[C@@H]1C(=O)N2C(C(=O)OC(c3ccccc3)c3ccccc3)=C(CCl)CS[C@H]12	40.2	> 100	> 100	> 100	> 74.5	> 100	27.1	> 76.6	66.7	> 100	40.8	> 100	32.4	> 100	38.2	> 100	33.6	> 100	63.4	> 100
COc1ccc2c(c1)CC[C@@H]1[C@@H]2CC[C@]2(C)[C@@H](NC(=O)/C=C/c3ccc(O)c(O)c3)CC[C@@H]12	3.89	14.8	11.5	27.1	11.2	25.9	2.02	10.4	15.7	48.6	3.86	16.4	2.17	12.5	2	6.05	5.24	> 100	3.03	11.1
O=C1C2=C(c3ccccc31)C(c1ccccc1)N1C(=O)CSC1=N2 (stereo not given)		> 100		> 100		> 100		> 100		> 100		> 100		> 100		59.1		> 100		> 100
COc1ccccc1C1=C(Nc2ccccc2)C(=O)NC1=O	> 25	> 25	> 25	> 25	> 25	> 25	24.5	> 25	> 25	> 25	> 25	> 25	> 25	> 25	> 25	> 25	> 25	> 25	> 25	> 25
